Reference: patent publication US20230062612A1, “SAFETY SWITCHES FOR REGULATION OF GENE EXPRESSION” (Sana Biotechnology, Inc., priority 2020, published 2023)

Tests used:
Type in all cases: cell-based
[1] = system: human CD47 fused to LID degron domain; assay: LID degron CD47 degradation in EFS-CD47-LID transduced iPSCs, flow cytometry; conditions: 0-1,000 nM Shield-1 for 24 hours, increasing doses
Description: In the LID system, the protein of interest (POI e.g., CD47) is fused to a LID degron domain (also referred to as “LID domain” or “LID degron”). The LID degron domain includes the FK506- and rapamycin-binding protein (FKBP) and a peptide degron (e.g., TRGVEEVAEGVVLLRRRGN) fused to the C-terminus of the FKBP (FIG. 5). […] The peptide degron is capable of binding to the FKBP active site and is not detected by cellular degradation proteins when sequestered in the active site, thus rendering it a cryptic degron. In the absence of Shield-1, a small molecule, the POI-LID fusion protein is stable. When present, Shield-1 binds tightly to FKBP, thereby displacing the peptide degron and inducing rapid degradation of the LID and any fused partner protein (e.g., CD47). […]
(§1) The EFS-CD47-LID transduced cells, EFS-CD47 transduced cells, and wild-type control cells were incubated in the presence of 0-1,000 nM of Shield-1 for 24 hours and CD47 expression was assessed using flow cytometry.

[2] = system: human CD47; assay: CD47 expression in control EFS-CD47 transduced and wild-type iPSCs with Shield-1
Description: To assess the ability of the LID system to promote CD47 degradation, expression constructs were made containing the following expression cassettes: a) an EF1a core promoter (EFS) operably linked to a human CD47 gene fused to a nucleic acid encoding the LID degron domain (EFS-CD47-LID, see FIG. 6, top); and b) a control containing the EFS promoter operable linked to the human CD47 gene alone (EFS-CD47). iPSCs were transduced with either the EFS-CD47-LID expression cassette or control EFS-CD47 expression cassette by lentiviral transduction.
as §1

[3] = system: human CD47 fused to SMASH tag; assay: SMASH degron CD47 degradation in EFS-SMASH-CD47 transduced iPSCs, flow cytometry; conditions: 0-10 μM asunaprevir for 48 hours, increasing doses
Description: Small-molecule assisted shutoff, or SMASH, is a system using the hepatitis C virus (HCV) nonstructural protein 3 (NS3) protease and elements in the NS4A protein to effectively shut off expression of a CD47 protein fused to a SMASH-tag with clinically tested HCV protease inhibitors (FIG. 2). In the absence of protease inhibitor (asunaprevir), a cryptic degron sequence is excised, leading to an unmodified gene product. By addition of asunaprevir, the NS3 protease is inhibited, leading to the degradation of newly synthesized CD47 proteins fused to the degron sequence.
CD47 expression analysis: After incubation, cells are washed and stained with an anti-CD47 antibody conjugated to Alexa-647 (Biolegend) to detect surface expression of CD47. More specifically, 1×10^6 cells are harvested and resuspended in 100 μl cell staining-buffer (PBS, 0.1% BSA, 0.1% sodium azide) and incubated with 5 μl Alexa-Fluor 647 labelled anti-CD47 antibody for 30 min on ice. Cells are washed in cell staining buffer and subsequently analyzed by flow cytometry. […]

[4] = system: human CD47; assay: CD47 expression in control EFS-CD47 transduced and wild-type iPSCs with asunaprevir; conditions: for expression of CD47: 0-10 μM asunaprevir for 48 hours
Description: CD47 expression analysis: After incubation, cells are washed and stained with an anti-CD47 antibody conjugated to Alexa-647 (Biolegend) to detect surface expression of CD47. More specifically, 1×10^6 cells are harvested and resuspended in 100 μl cell staining-buffer (PBS, 0.1% BSA, 0.1% sodium azide) and incubated with 5 μl Alexa-Fluor 647 labelled anti-CD47 antibody for 30 min on ice. Cells are washed in cell staining buffer and subsequently analyzed by flow cytometry.
To assess the ability of the SMASH system to promote CD47 degradation, expression constructs were made containing the following expression cassettes: a) an EF1 a core promoter (EFS) operably linked to a human CD47 gene fused to a nucleic acid encoding a SMASH tag (EFS-CD47-SMASH, see FIG. 4, top); and b) a control containing the EFS promoter operably linked to the human CD47 gene alone (EFS-CD47). iPSCs were transduced with either the EFS-SMASH-CD47 expression cassette or control EFS-CD47 expression cassette by lentiviral transduction. The EFS-SMASH-CD47 transduced cells, EFS-CD47 transduced cells, and wild-type control cells were incubated in the presence of 0-10 μM of asunaprevir for 48 hours and CD47 expression was assessed using flow cytometry, as explained above.

[5] = system: EFS-CD-CD47 transduced cells; assay: Cytosine deaminase safety switch: killing of transduced iPSCs by 5-fluorocytosine; conditions: 0.01-1000 μM 5-FC; increasing concentrations; FIG. 16 (middle)
Description: To assess the ability of cytosine deaminase to induce cell death in an […] manner, an EFS-cytosine deaminase (CD)-CD47 bicistronic cassette was transduced into wild type iPSCs by lentiviral viral transduction (see FIG. 16, top). In this cassette, a nucleic acid encoding CD is located upstream of a nucleic acid encoding CD47. A 2A sequence located between the CD and CD47 nucleic acids to ensure the two proteins are separate following translation. An EFS promoter controls expression of CD and CD47.
EFS-CD-CD47 transduced cells and control EFS-CD transduced cells were contacted with 0.01-1000 μM concentrations of 5-fluorocytosine (5-FC) (“5FC”). Cytosine deaminase deaminates 5-FC to toxic 5-fluorouracil (5-FU), thereby killing the cells.

In the case of `CC[C@H](C(=O)N1CCCC[C@H]1C(=O)O[C@H](CCc1ccc(OC)c(OC)c1)c1cccc(OCCN2CCOCC2)c1)c1cc(OC)c(OC)c(OC)c1` [Shield-1], the “reduction in CD47 expression” value [1] was no less than 50%, the “expression of CD47” value ([2]; EFS-CD47 ("CD47 only") cells without LID, 0-1,000 nM for 24 hours) was “generally unaltered” and the “off-target effects on CD47 expression” value ([2]; EFS-CD47 cells, no significant CD47 knockdown, 0-1,000 nM for 24 hours) was “no off-target effects”. For the same compound, the “expression of CD47” value ([2]; wildtype ("WT") cells, 0-1,000 nM Shield-1 for 24 hours) was “remained at the baseline”.

In the case of `C=C[C@@H]1C[C@]1(NC(=O)[C@@H]1C[C@@H](Oc2ncc(OC)c3ccc(Cl)cc23)CN1C(=O)[C@@H](NC(=O)OC(C)(C)C)C(C)(C)C)C(=O)NS(=O)(=O)C1CC1` [asunaprevir], the “reduction in CD47 expression” value [3] was no less than 50%, the “expression of CD47” value ([4]; EFS-CD47 ("CD47 only") cells without SMASH) was “generally unaltered” and the “off-target effects on CD47 expression” value ([4]; EFS-CD47 cells, no significant CD47 knockdown, 0-10 μM for 48 hours) was “no off-target effects”. For the same compound, the “expression of CD47” value ([4]; wildtype ("WT") cells) was “remained at the baseline”.

In the case of `Nc1nc(=O)[nH]cc1F` [5-FC, 5-fluorocytosine], the “killing of CD47 expressing EFS-CD-CD47 transduced cells” value [5] was “observed”.
